The target of assay [1] is T1, hNav1.7 (Homo sapiens (Human), UniProt Q15858). The assay is described as follows: Tritiated compound binding to membranes from cells heterologously expressing hNav1.7 and the β1 subunit (Nav1.7 LBA). The conditions noted are these: competitive binding vs [3H]compound, membranes with hNav1.7 and β1 subunit; read-out: Nav1.7 LBA EVO IC50. Here is the method: Example 93A. Tritiated Compound Binding to Membranes Isolated from Cells that Heterologously Express hNav1.7 and the β1 Subunit
Preparation of membranes containing recombinantly expressed sodium channels: Frozen recombinant cell pellets are thawed on ice and diluted to 4 times the cell pellet weight with ice cold 50 mM Tris HCl, pH 7.4 buffer. The cell suspensions are homogenized on ice using a motorized glass dounce homogeniser. Homogenates are further diluted 8.4 times with ice cold 50 mM Tris HCl, pH 7.4 buffer and then centrifuged at 200×g at 4° C. for 15 minutes. The supernatants are collected and centrifuged at 10000×g at 4° C. for 50 min. The pellets are then re-suspended in 100 mM NaCl, 20 mM Tris HCl, pH 7.4 buffer containing 1% v/v protease inhibitors (Calbiochem) and re-homogenized on ice. The homogenized membranes are then processed through a syringe equipped with a 26 gauge needle. Protein concentrations arer determined by Bradford Assay and the membranes are stored at −80° C.
Saturation experiments. A competitive NaV1.7 inhibitor having a methyl group is tritiated. Three tritiums are incorporated in place of methyl hydrogens to generate [^3H]compound. Binding of this radioligand is performed in 5 mL borosilicate glass test tubes at room temperature. Binding is initiated by adding membranes to increasing concentrations of [^3H]compound in 100 mM NaCl, 20 mM Tris HCl, pH 7.4 buffer containing 0.01% w/v bovine serum albumin (BSA) for 18 h. Non-specific binding is determined in the presence of 1 μM unlabeled compound. After 18 h, the reactants are filtered through GF/C glass fiber filters presoaked in 0.5% w/v polyethylene imine. Filters are washed with 15 mL ice cold 100 mM NaCl, 20 mM Tris HCl, pH7.4 buffer containing 0.25% BSA to separate bound from free ligand. [^3H]compound bound to filters is quantified by liquid scintillation counting.
Binding reactions are performed in 96-well polypropylene plates at room temperature for 18 h. In 360 μL, membranes are incubated with […] [^3H]compound and increasing concentrations of Test Compound. Non-specific binding is defined in the presence of 1 μM unlabeled compound. Reactions are transferred and filtered through 96-well glass fiber/C filter plates presoaked with 0.5% polyethylene imine. The filtered reactions are washed 5 times with 200 μL ice cold buffer containing 0.25% BSA. Bound radioactivity is determined by liquid scintillation counting.
Data Analysis: For saturation experiments, non-specific binding is subtracted from total binding to provide specific binding and these values are recalculated in terms of pmol ligand bound per mg protein. Saturation curves are constructed and dissociation constants are calculated using the single site ligand binding model: Beq=(Bmax*X)/(X+Kd), where Beq is the amount of ligand bound at equilibrium, Bmax is the maximum receptor density, Kd is the dissociation constant for the ligand, and X is the free ligand concentration. For competition studies percent inhibition is determined and IC50 values are calculated using a 4 parameter logistic model (% inhibition=(A+((B−A)/(1+((x/C)^D)))) using XLfit, where A and B are the maximal and minimum inhibition respectively, C is the IC50 concentration and D is the (Hill) slope.
Example 93B. Tritiated Compound Binding to Membranes Isolated from Cells that Heterologous Express hNav1.7 and the β1 Subunit
Following the procedure described in Example 93A, and making modifications as required to: centrifuge supernatants at 100000×g instead of 10000×g; re-suspend pellets in a buffer containing 0.01% BSA in addition to 100 mM NaCl, 20 mM Tris HCl, pH 7.4 buffer, and 1% v/v proteasome inhibitors; and storing membranes at −80° C. in single use aliquots instead of pooled. […]
Target sequence in this assay (Q15858 whole entry, looked up): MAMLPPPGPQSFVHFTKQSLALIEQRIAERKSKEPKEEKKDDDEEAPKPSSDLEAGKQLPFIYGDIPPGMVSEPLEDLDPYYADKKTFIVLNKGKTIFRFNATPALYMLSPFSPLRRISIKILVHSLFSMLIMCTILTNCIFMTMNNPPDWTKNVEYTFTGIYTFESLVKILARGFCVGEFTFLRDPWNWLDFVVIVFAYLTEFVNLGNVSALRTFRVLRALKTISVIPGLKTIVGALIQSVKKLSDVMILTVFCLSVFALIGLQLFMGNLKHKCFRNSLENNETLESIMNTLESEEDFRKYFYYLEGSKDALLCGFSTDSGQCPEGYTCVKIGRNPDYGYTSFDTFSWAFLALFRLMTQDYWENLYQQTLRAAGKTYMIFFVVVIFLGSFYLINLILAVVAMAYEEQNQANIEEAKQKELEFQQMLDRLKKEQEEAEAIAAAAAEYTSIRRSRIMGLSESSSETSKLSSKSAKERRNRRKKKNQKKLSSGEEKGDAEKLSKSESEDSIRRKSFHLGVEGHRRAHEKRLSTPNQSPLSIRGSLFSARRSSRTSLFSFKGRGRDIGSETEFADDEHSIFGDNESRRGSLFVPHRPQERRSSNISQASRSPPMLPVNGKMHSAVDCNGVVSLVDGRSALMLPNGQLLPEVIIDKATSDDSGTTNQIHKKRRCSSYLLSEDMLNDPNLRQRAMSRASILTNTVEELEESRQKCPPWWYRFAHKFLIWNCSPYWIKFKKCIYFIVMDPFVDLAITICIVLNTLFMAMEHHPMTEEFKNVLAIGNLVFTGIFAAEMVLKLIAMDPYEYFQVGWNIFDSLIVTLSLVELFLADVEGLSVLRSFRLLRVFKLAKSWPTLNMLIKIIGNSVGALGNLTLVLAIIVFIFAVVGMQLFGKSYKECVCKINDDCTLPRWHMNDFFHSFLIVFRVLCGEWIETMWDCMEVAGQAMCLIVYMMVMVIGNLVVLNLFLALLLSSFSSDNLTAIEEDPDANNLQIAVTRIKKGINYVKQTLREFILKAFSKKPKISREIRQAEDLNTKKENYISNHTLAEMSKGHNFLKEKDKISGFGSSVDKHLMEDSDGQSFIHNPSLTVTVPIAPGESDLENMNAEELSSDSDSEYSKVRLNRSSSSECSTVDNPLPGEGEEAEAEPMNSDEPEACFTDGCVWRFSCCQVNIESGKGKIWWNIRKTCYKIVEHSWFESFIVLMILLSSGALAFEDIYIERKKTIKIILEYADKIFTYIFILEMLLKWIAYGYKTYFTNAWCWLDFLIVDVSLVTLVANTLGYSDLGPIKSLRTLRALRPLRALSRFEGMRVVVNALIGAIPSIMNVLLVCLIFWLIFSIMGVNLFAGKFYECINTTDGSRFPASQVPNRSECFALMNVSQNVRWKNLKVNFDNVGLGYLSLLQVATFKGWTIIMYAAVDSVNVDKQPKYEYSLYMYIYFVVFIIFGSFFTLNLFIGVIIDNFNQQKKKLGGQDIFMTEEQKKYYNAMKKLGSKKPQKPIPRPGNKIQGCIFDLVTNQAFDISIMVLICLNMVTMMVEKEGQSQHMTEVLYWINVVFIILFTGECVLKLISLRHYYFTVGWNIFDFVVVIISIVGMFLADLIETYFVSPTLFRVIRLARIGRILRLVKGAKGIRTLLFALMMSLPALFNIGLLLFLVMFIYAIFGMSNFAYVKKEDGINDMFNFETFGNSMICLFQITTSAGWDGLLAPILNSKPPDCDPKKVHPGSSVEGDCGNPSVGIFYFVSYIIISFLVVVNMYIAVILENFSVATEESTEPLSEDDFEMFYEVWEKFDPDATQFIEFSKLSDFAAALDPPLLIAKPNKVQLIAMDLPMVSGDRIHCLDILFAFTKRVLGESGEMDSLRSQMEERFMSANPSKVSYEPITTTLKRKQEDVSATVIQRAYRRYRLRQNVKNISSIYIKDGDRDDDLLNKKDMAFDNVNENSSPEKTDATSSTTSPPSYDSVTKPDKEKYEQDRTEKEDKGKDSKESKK
Target sequence in this assay (Q07699 whole entry partner, looked up): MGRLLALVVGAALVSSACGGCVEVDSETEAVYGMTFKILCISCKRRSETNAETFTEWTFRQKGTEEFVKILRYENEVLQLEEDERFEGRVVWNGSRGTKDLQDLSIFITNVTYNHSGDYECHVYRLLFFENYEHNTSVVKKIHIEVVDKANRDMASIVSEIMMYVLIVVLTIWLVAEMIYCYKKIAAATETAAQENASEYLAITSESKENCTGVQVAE

The target in assay [2] is T1, hNav1.7. Description: Electrophysiological assay (EP), voltage clamp on Syncropatch 384PE, CHO cells stably expressing Nav1.7. The class given is cell-based. As to conditions: holding potential −50 mV, 7.5 min compound incubation, read-out: EP_SP hNav1.7 EVO IC50. From the text:
Example 93C. Electrophysiological Assay (EP) (In Vitro Assay)
Patch voltage clamp electrophysiology allows for the direct measurement and quantification of block of voltage-gated sodium channels (NaV's), and allows the determination of the time- and voltage-dependence of block which has been interpreted as differential binding to the resting, open, and inactivated states of the sodium channel (Hille, B., Journal of General Physiology (1977), 69: 497-515).
The following voltage clamp electrophysiology studies are performed on representative compounds using cells heterologously expressing Nav1.7 or Nav1.5 channels. cDNAsfor Nav1.7 (NM_002977) and Nav1.5 (AC137587) are stably expressed in Chinese Hamstr Ovary (CHO) cells and CHL (Chinese Hamster Lung) cells respectively. Sodium currents are measured in the whole-cell configuration using Syncropatch 384PE (Nanlon Technologies, Germany). 1NPC®-384 chips with custom medium resistance and single hole mode are used. Internal solution consists of (in mM): […], 10 […], 20 EGTA, and 10 Hepes (pH adjusted to 7.2); and external solution contains (in mM): 60 NMDG, 80 NaCl, 4 KCl, 1 MgCl2, 2 CaCl2, 2 D-Glucose monohydrate, 10 Hepes (pH adjusted to 7.4 with NaOH).
After system flushing, testing compounds are dissolved in external solution containing 0.1% Pluronic F-127. The chip is moved into the measuring head and the instrument primes the chip with external and internal solutions. 10 μl cells are added to the chip from a cell hotel, and a negative pressure of −50 mBar is applied to form a seal. Following treatment with seal enhancer solution and wash-off with external solution, negative pressure of −250 mbar is applied for 1 second to achieve the whole-cell configuration, followed by three washing steps in external solution. 20 μl of compounds is added to 40 μl in each well (1:3 dilution of compounds), and after mixing, 20 μl is removed so the volume is retained at 40 μl. After approximately 13 minutes recordings, 20 μl/well of 2 uM TTX, or 333 uM Tetracaine (for Nav1.5) is added to achieve full block.
For voltage protocol, an holding potential of −50 mV is applied during the whole experiment. A depolarizing step is applied to −10 mV for 10 ms, followed by a hyperpolarization step to −150 mV for 20 ms to allow channel recovery from inactivation. A second depolarizing step is applied from −150 mV to −10 mV for 10 ms, where currents are measured to derive blocking effects of compounds. Inhibition is determined based on 7.5 min of compound incubation.
Target sequence in this assay (Q15858 other isoform, or with tags, fused parts or gaps): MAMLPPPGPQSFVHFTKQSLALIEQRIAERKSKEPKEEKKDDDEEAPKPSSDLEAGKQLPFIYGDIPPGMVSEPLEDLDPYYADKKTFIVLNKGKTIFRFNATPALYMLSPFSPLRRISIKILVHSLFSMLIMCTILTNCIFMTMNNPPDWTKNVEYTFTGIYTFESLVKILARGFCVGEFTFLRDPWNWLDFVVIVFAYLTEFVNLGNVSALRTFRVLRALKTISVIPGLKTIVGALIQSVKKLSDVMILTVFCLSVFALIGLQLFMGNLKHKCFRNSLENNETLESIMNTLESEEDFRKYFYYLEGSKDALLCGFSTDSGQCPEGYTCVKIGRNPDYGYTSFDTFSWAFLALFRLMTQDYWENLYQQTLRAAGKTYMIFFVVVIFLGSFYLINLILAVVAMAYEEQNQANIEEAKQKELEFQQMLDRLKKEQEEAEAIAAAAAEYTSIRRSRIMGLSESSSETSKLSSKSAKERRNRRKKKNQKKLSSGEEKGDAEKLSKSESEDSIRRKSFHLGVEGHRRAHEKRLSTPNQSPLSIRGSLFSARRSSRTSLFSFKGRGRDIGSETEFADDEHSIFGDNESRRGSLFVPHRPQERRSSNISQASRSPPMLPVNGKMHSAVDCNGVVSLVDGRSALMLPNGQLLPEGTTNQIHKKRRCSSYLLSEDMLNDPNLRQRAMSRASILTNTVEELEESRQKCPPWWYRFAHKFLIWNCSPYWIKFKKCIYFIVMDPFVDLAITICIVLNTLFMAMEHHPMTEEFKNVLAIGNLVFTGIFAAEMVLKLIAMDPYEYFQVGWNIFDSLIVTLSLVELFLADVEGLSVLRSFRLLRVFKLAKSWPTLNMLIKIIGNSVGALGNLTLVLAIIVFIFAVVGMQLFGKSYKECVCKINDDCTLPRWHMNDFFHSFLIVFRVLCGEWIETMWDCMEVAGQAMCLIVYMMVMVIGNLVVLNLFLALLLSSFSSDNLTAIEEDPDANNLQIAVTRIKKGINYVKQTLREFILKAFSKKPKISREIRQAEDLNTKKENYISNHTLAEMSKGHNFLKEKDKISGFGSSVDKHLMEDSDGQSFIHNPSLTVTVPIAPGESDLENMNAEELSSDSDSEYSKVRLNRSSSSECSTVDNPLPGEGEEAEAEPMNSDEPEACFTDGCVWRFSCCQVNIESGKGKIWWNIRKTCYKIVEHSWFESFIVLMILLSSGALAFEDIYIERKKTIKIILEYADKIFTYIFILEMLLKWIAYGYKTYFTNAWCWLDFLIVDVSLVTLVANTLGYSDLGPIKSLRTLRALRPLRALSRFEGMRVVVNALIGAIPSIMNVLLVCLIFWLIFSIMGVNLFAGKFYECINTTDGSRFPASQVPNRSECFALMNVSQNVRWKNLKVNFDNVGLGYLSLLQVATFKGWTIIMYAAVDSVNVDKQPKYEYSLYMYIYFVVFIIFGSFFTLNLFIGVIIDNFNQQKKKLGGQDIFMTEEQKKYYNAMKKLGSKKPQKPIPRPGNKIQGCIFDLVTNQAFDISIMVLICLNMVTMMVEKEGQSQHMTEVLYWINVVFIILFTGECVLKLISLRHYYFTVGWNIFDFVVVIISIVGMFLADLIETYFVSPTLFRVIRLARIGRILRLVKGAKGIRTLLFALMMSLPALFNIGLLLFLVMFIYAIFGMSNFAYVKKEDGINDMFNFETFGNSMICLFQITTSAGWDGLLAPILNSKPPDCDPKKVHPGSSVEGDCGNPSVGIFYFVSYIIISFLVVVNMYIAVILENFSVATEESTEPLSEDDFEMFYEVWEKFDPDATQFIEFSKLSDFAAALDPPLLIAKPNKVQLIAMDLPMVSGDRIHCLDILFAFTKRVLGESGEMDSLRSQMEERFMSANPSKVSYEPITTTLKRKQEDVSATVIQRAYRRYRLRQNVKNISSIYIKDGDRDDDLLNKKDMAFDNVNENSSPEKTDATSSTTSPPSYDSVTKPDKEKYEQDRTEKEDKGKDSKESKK

Counter-ions that a name gives are not always drawn.

For “4-(((1S,2S,4S)-2-(azetidin-3-yl(methyl)amino)-4-(3-(trifluoromethyl)phenyl)cyclohexyl)oxy)-5-chloro-2-fluoro-N-(pyrimidin-4-yl)benzenesulfonamide [Example 80]”, the half-inhibitory concentration (IC50) (usually the concentration that inhibits the measured activity by half) in assay [1] came out at 0.39 nM; in assay [2], 0.317 nM.
For “5-Chloro-4-(((1S,3R,4R,6R)-7,7-dichloro-4-(dimethylamino)-6-(3-(trifluoromethyl)-phenyl)bicyclo[4.1.0]heptan-3-yl)amino)-2-fluoro-N-(pyrimidin-4-yl)benzenesulfonamide [Example 53]”, the IC50 in assay [1] stood at 46.2 nM; in assay [2], 1.86 nM.
The like results for “5-Chloro-4-(((3 S,4S,6S)-7,7-dichloro-4-(dimethylamino)-6-(3-(trifluoromethyl)phenyl)-bicyclo[4.1.0]heptan-3-yl)amino)-2-fluoro-N-(pyrimidin-4-yl)benzenesulfonamide [Example 52]” were, in that order, 2000 nM and 496 nM.
The like results for `CN(C)[C@@H]1C[C@](O)(c2cccc(C(F)(F)F)c2)CC[C@H]1Nc1cc(F)c(S(=O)(=O)Nc2ccncn2)cc1Cl` (single isomer, unassigned) [Example 36, formate] were, in that order, 309 nM and 144 nM.
The like results for `CN(C)[C@H]1C[C@](O)(c2cccc(C(F)(F)F)c2)CC[C@@H]1Nc1cc(F)c(S(=O)(=O)Nc2ccncn2)cc1Cl` (single isomer, unassigned) [Example 37] were, in that order, not below 2000 nM and 371 nM.
On to `CN(C)[C@@H]1C[C@@](O)(c2cccc(C(F)(F)F)c2)CC[C@H]1Nc1cc(F)c(S(=O)(=O)Nc2ccncn2)cc1Cl` (single isomer, unassigned) [Example 38, formate], for which the IC50 is not below 2000 nM in assay [1] and 9440 nM in assay [2].
The like results for `CN(C)[C@H]1C[C@@H](c2ccccc2C(F)(F)F)CC[C@@H]1Nc1cc(F)c(S(=O)(=O)Nc2ccncn2)cc1Cl` (single isomer, unassigned) [Example 77] were, in that order, 643 nM and 211 nM.
With `CN(C)[C@@H]1C[C@H](c2ccccc2C(F)(F)F)CC[C@H]1Nc1cc(F)c(S(=O)(=O)Nc2ccncn2)cc1Cl` (single isomer, unassigned) [Example 78], the IC50 was found to be 12.2 nM in assay [1] and 1.37 nM in assay [2].
For `CN(C)[C@H]1C[C@@H](c2cccc(C(F)(F)F)c2)CC[C@@H]1N1C(=O)COc2cc(S(=O)(=O)Nc3ccncn3)c(F)cc21` [Example 1, 4-((1S,2S,4S)-2-(Dimethylamino)-4-(3-(trifluoromethyl)phenyl)cyclohexyl)-6-fluoro-3-oxo-N-(pyrimidin-4-yl)-3,4-dihydro-2H-benzo[b][1,4]oxazine-7-sulfonamide formate], the IC50 in assay [1] turned out to be 18.8 nM; in assay [2], 3.13 nM.
The like results for `CN(C)[C@H]1C[C@@H](c2cccc(C(F)(F)F)c2)CC[C@@H]1N1CCOc2cc(S(=O)(=O)Nc3ccncn3)c(F)cc21` [Example 2, 4-((1S,2S,4S)-2-(Dimethylamino)-4-(3-(trifluoromethyl)phenyl)cyclohexyl)-6-fluoro-N-(pyrimidin-4-yl)-3,4-dihydro-2H-benzo[b][1,4]oxazine-7-sulfonamide formate] were, in that order, 0.686 nM and 1.01 nM.
The like results for `CN(C)[C@H]1C[C@@H](c2cccc(C(F)(F)F)c2)CC[C@@H]1n1c(=O)oc2cc(S(=O)(=O)Nc3ccncn3)c(F)cc21` [Example 3, 3-((1S,2S,4S)-2-(Dimethylamino)-4-(3-(trifluoromethyl)phenyl)cyclohexyl)-5-fluoro-2-oxo-N-(pyrimidin-4-yl)-2,3-dihydrobenzo[d]oxazole-6-sulfonamide formate] were, in that order, 83.1 nM and 26.2 nM.
The like results for `CN(C)[C@H]1C[C@@H](c2ccc(Cl)c(Cl)c2)CC[C@@H]1Nc1cc(F)c(S(=O)(=O)Nc2ccncn2)cc1Cl` [Example 4, 5-Chloro-4-(((1S,2S,4S)-4-(3,4-dichlorophenyl)-2-(dimethylamino)cyclohexyl)amino)-2-fluoro-N-(pyrimidin-4-yl)benzenesulfonamide] were, in that order, 1.2 nM and 0.305 nM.
Regarding `CN(C)[C@H]1C[C@@H](c2cccc(C(F)(F)F)c2)CC[C@@H]1Nc1cc(F)c(S(=O)(=O)Nc2ccncn2)cc1OC(F)F` [Example 5, 5-(Difluoromethoxy)-4-(((1S,2S,4S)-2-(dimethylamino)-4-(3-(trifluoromethyl)phenyl)-cyclohexyl)amino)-2-fluoro-N-(pyrimidin-4-yl)benzenesulfonamide formate], the concentration for half-maximal inhibition (IC50) is 1.37 nM in assay [1] and 0.519 nM in assay [2].
The like results for `CN(C)[C@H]1C[C@@H](c2ccc(F)c(C(F)(F)F)c2)CC[C@@H]1Nc1cc(F)c(S(=O)(=O)Nc2ccncn2)cc1Cl` [Example 6, 5-chloro-4-(((1S,2S,4S)-2-(dimethylamino)-4-(4-fluoro-3-(trifluoromethyl)phenyl)-cyclohexyl)amino)-2-fluoro-N-(pyrimidin-4-yl)benzenesulfonamide] were, in that order, 0.791 nM and 0.765 nM.
For `CN(C)[C@H]1C[C@@H](c2ccc(Cl)c(C(F)(F)F)c2)CC[C@@H]1Nc1cc(F)c(S(=O)(=O)Nc2ccncn2)cc1Cl` [Example 7], the IC50 was determined as 0.52 nM in assay [1] and 0.327 nM in assay [2].
Regarding `CN(C)[C@H]1C[C@@H](c2cccc(C(F)(F)F)c2)CC[C@@H]1Nc1ccc(S(=O)(=O)Nc2ccncn2)cc1F` [Example 89, 4-(((1S,2S,4S)-2-(Dimethylamino)-4-(3-(trifluoromethyl)phenyl)cyclohexyl)amino)-3-fluoro-N-(pyrimidin-4-yl)benzenesulfonamide formate], in assay [1], the IC50 is 12.4 nM.
As for `O=S(=O)(Nc1ccncn1)c1cc(Cl)c(O[C@H]2CC[C@H](c3cccc(C(F)(F)F)c3)C[C@@H]2N2CCC(O)C2)cc1F` (some centres unmarked) [Example 90, formate], the IC50 in assay [2] turned out to be 0.57 nM.

Values taken from patent publication US11028075B2, “Therapeutic compounds and methods of use thereof” (GENENTECH, INC., priority 2018, dated 2021).
